These results are taken from patent publication US20250066388A1, “1,3,4,7-TETRAHYDRO-2H-PYRROLO[3',2':5,6]PYRIDO[2,3-B][1,4]OXAZEPINE BCL-2 INHIBITORS” (AbbVie Inc., priority 2022, published 2025).

The subject of one experiment is RS4;11 cells. The experiment is described as follows: Cell viability assay (CellTiter-Glo) in RS4;11 cells. To be noted: 24 hours, 10% Human Serum. In kind it is cell-based. As for the experimental part:
(§1) The acute lymphoblastic leukemia (ALL) human cell line RS4;11 (ATCC, Manassas VA) was used as the primary human cell line to assess the cellular activity of compound of the present Examples in vitro and their efficacy in vivo. […] The acute lymphoblastic leukemia cell line Molt-4, which is derived from immature T-lymphoid cells (T-ALL), was used as a counter screen assay.
(§2) 3000 Cells (0.1×10^6/mL) were seeded in each well of 384-well plate and were treated for 24 hours in a humidified chamber with 5% CO2. Cell viability was determined by CellTiter-Glo as described by the manufacturer's instructions (Promega Corporation, Madison, WI, USA).

Another experiment concerns Molt-4 cells. Kind of experiment: Cell viability counter screen (CellTiter-Glo) in Molt-4 cells. In kind it is cell-based. To be noted: 24 hours, 10% Human Serum. As for the experimental part: as §1, §2
(In general: Counterscreens check selectivity or assay interference.)

For a further experiment, the target named is Bcl-2 protein (Homo sapiens (Human), UniProt P10415). The experiment is described as follows: TR-FRET binding assay, Bcl-2. To be noted: F-Bak peptide probe, GST-Bcl-2. A general note: In TR-FRET formats the signal depends on donor and acceptor labels being close together.
Bcl-2 protein, sequence (P10415 other isoform, or with tags, fused parts or gaps): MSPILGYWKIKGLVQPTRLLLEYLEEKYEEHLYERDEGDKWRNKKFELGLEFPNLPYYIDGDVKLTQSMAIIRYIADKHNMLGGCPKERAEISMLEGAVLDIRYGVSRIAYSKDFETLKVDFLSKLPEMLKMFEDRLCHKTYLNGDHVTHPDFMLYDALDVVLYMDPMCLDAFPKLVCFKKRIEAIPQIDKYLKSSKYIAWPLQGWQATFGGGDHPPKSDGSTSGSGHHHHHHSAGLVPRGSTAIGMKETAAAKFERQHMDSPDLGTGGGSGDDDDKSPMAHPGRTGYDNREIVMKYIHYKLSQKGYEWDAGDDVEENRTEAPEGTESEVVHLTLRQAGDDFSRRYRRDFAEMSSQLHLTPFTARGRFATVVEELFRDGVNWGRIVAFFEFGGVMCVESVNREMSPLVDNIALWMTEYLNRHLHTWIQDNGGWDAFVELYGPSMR
The next experiment concerns the target Bcl-xL protein (Homo sapiens (Human), UniProt Q07817). The experiment is described as follows: TR-FRET binding assay, Bcl-xL. To be noted: F-Bak peptide probe.

Bcl-xL protein, sequence (Q07817 other isoform, or with tags, fused parts or gaps): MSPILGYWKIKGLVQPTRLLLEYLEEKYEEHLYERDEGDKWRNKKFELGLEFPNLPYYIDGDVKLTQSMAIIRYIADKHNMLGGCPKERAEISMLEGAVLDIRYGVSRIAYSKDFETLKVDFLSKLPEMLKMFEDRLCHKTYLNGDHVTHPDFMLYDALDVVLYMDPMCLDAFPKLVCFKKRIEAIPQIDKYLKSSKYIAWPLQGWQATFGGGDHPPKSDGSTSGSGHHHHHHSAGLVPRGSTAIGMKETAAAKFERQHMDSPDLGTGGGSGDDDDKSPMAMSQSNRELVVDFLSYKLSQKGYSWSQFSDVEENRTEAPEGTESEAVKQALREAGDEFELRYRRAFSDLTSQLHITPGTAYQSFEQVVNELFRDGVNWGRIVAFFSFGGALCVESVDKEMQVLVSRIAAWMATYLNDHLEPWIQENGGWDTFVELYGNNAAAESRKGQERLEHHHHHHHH

As to `CC1(C)CC(c2ccc(Cl)cc2)=C2CN3CCN(c4ccc(C(=O)NS(=O)(=O)c5ccc(OCC6(F)CCN(C7COC7)CC6)c([N+](=O)[O-])c5)c(N5CCCOc6nc7[nH]ccc7cc65)c4)C[C@H]3COCCCO[C@@H]2C1` [Example 19, 4-((4aS,10aR)-14-(4-chlorophenyl)-12,12-dimethyl-1,2,4a,5,8,9,10a,11,13,15-decahydro-7H,12H-benzo[f]pyrazino[2,1-c][1,8]dioxa[4]azacycloundecin-3(4H)-yl)-2-(3,4-dihydro-2H-pyrrolo[3′,2′:5,6]pyrido[2,3-b][1,4]oxazepin-1(7H)-yl)-N-((4-((4-fluoro-1-(oxetan-3-yl)piperidin-4-yl)methoxy)-3-nitrophenyl)sulfonyl)benzamide], the EC50 is 0.881 nM in the experiment on RS4;11 cells and 132 nM in the experiment on Molt-4 cells. Also, the values for the Ki on Bcl-2 protein and on Bcl-xL protein were 0.475 nM and 2.23 nM, respectively.

For the compound `CC1(C)CC(c2ccc(Cl)cc2)=C2CN3CCN(c4ccc(C(=O)NS(=O)(=O)c5ccc(NCC6(F)CCN(C7COC7)CC6)c([N+](=O)[O-])c5)c(N5CCCOc6nc7[nH]ccc7cc65)c4)C[C@H]3COCCCO[C@@H]2C1` [Example 39, 4-((4aS,10aR)-14-(4-chlorophenyl)-12,12-dimethyl-1,2,4a,5,8,9,10a,11,13,15-decahydro-7H,12H-benzo[f]pyrazino[2,1-c][1,8]dioxa[4]azacycloundecin-3(4H)-yl)-2-(3,4-dihydro-2H-pyrrolo[3′,2′:5,6]pyrido[2,3-b][1,4]oxazepin-1(7H)-yl)-N-((4-(((4-fluoro-1-(oxetan-3-yl)piperidin-4-yl)methyl)amino)-3-nitrophenyl)sulfonyl)benzamide], the EC50 with RS4;11 cells worked out at 1.66 nM; in the experiment on Molt-4 cells, 453 nM. Further, the Ki is 0.194 nM on Bcl-2 protein and 5.25 nM on Bcl-xL protein.

For `C[C@@H]1CO[C@@H](CNc2ccc(S(=O)(=O)NC(=O)c3ccc(N4CCN5CC6=C(c7ccc(Cl)cc7)CC(C)(C)C[C@H]6OCCCOC[C@@H]5C4)cc3N3CCCOc4nc5[nH]ccc5cc43)cc2[N+](=O)[O-])CO1` [Example 6, 4-((4aS,10aR)-14-(4-chlorophenyl)-12,12-dimethyl-1,2,4a,5,8,9,10a,11,13,15-decahydro-7H,12H-benzo[f]pyrazino[2,1-c][1,8]dioxa[4]azacycloundecin-3(4H)-yl)-2-(3,4-dihydro-2H-pyrrolo[3′,2′:5,6]pyrido[2,3-b][1,4]oxazepin-1(7H)-yl)-N-((4-((((2S,5R)-5-methyl-1,4-dioxan-2-yl)methyl)amino)-3-nitrophenyl)sulfonyl)benzamide], the values for the EC50 in the experiment with RS4;11 cells and in the experiment with Molt-4 cells were 1.55 nM and 1910 nM, respectively. For the same compound, the results for the Ki on Bcl-2 protein and at Bcl-xL protein were 0.438 nM and 5.62 nM, respectively.

Regarding `CC1(C)CC(c2ccc(Cl)cc2)=C2CN3CCN(c4ccc(C(=O)NS(=O)(=O)c5ccc(NCC6CCOCC6)c([N+](=O)[O-])c5)c(N5CCCOc6nc7[nH]ccc7cc65)c4)C[C@H]3COCCCO[C@@H]2C1` [Example 1, 4-((4aS,10aR)-14-(4-chlorophenyl)-12,12-dimethyl-1,2,4a,5,8,9,10a,11,13,15-decahydro-7H,12H-benzo[f]pyrazino[2,1-c][1,8]dioxa[4]azacycloundecin-3(4H)-yl)-2-(3,4-dihydro-2H-pyrrolo[3′,2′:5,6]pyrido[2,3-b][1,4]oxazepin-1(7H)-yl)-N-((3-nitro-4-(((tetrahydro-2H-pyran-4-yl)methyl)amino)phenyl)sulfonyl)benzamide], the EC50 was 4.01 nM in the experiment with RS4;11 cells and over 10000 nM with Molt-4 cells. Besides, the Ki on Bcl-2 protein is 0.459 nM; on Bcl-xL protein, 19.4 nM.

Take `CC1(C)CC(c2ccc(Cl)cc2)=C2CN3CCN(c4ccc(C(=O)NS(=O)(=O)c5ccc(NCC6(O)COC6)c([N+](=O)[O-])c5)c(N5CCCOc6nc7[nH]ccc7cc65)c4)C[C@H]3COCCCO[C@@H]2C1` [Example 17, 4-((4aS,10aR)-14-(4-chlorophenyl)-12,12-dimethyl-1,2,4a,5,8,9,10a,11,13,15-decahydro-7H,12H-benzo[f]pyrazino[2,1-c][1,8]dioxa[4]azacycloundecin-3(4H)-yl)-2-(3,4-dihydro-2H-pyrrolo[3′,2′:5,6]pyrido[2,3-b][1,4]oxazepin-1(7H)-yl)-N-((4-(((3-hydroxyoxetan-3-yl)methyl)amino)-3-nitrophenyl)sulfonyl)benzamide]: the EC50 with RS4;11 cells was 2.82 nM; with Molt-4 cells, 723 nM. For the same compound, the results for the Ki on Bcl-2 protein and at Bcl-xL protein were 0.761 nM and 6.31 nM, respectively.

Turning to `CC1(C)CC(c2ccc(Cl)cc2)=C2CN3CCN(c4ccc(C(=O)NS(=O)(=O)c5ccc(NC[C@H]6CC[C@](C)(O)CO6)c([N+](=O)[O-])c5)c(N5CCCOc6nc7[nH]ccc7cc65)c4)C[C@H]3COCCCO[C@@H]2C1` [Example 2, 4-((4aS,10aR)-14-(4-chlorophenyl)-12,12-dimethyl-1,2,4a,5,8,9,10a,11,13,15-decahydro-7H,12H-benzo[f]pyrazino[2,1-c][1,8]dioxa[4]azacycloundecin-3(4H)-yl)-2-(3,4-dihydro-2H-pyrrolo[3′,2′:5,6]pyrido[2,3-b][1,4]oxazepin-1(7H)-yl)-N-((4-((((2R,5S)-5-hydroxy-5-methyltetrahydro-2H-pyran-2-yl)methyl)amino)-3-nitrophenyl)sulfonyl)benzamide], the EC50 in the experiment with RS4;11 cells came to 0.651 nM; with Molt-4 cells, 1220 nM. The Ki at Bcl-2 protein was determined as 0.0489 nM; at Bcl-xL protein, 9.3 nM.

Turning to `CC1(C)CC(c2ccc(Cl)cc2)=C2CN3CCN(c4ccc(C(=O)NS(=O)(=O)c5ccc(NC[C@H]6CC[C@@](C)(O)CC6)c([N+](=O)[O-])c5)c(N5CCCOc6nc7[nH]ccc7cc65)c4)C[C@H]3COCCCO[C@@H]2C1` [Example 36, 4-((4aS,10aR)-14-(4-chlorophenyl)-12,12-dimethyl-1,2,4a,5,8,9,10a,11,13,15-decahydro-7H,12H-benzo[f]pyrazino[2,1-c][1,8]dioxa[4]azacycloundecin-3(4H)-yl)-2-(3,4-dihydro-2H-pyrrolo[3′,2′:5,6]pyrido[2,3-b][1,4]oxazepin-1(7H)-yl)-N-((4-((((1s,4s)-4-hydroxy-4-methylcyclohexyl)methyl)amino)-3-nitrophenyl)sulfonyl)benzamide], the results for the EC50 with RS4;11 cells and in the experiment with Molt-4 cells were 1.47 nM and 117 nM, respectively. In addition, the Ki is 0.0607 nM at Bcl-2 protein and 11.1 nM at Bcl-xL protein.

In the case of `CO[C@H]1C[C@@H](CNc2ccc(S(=O)(=O)NC(=O)c3ccc(N4CCN5CC6=C(c7ccc(Cl)cc7)CC(C)(C)C[C@H]6OCCCOC[C@@H]5C4)cc3N3CCCOc4nc5[nH]ccc5cc43)cc2[N+](=O)[O-])C1` [Example 24, 4-((4aS,10aR)-14-(4-chlorophenyl)-12,12-dimethyl-1,2,4a,5,8,9,10a,11,13,15-decahydro-7H,12H-benzo[f]pyrazino[2,1-c][1,8]dioxa[4]azacycloundecin-3(4H)-yl)-2-(3,4-dihydro-2H-pyrrolo[3′,2′:5,6]pyrido[2,3-b][1,4]oxazepin-1(7H)-yl)-N-((4-((((1s,3s)-3-methoxycyclobutyl)methyl)amino)-3-nitrophenyl)sulfonyl)benzamide], the EC50 in the experiment with RS4;11 cells is 4.9 nM; with Molt-4 cells it was over 10000 nM. Besides, the Ki at Bcl-2 protein is 0.248 nM; at Bcl-xL protein, 10.3 nM.

Consider `CO[C@H]1C[C@H](Nc2ccc(S(=O)(=O)NC(=O)c3ccc(N4CCN5CC6=C(c7ccc(Cl)cc7)CC(C)(C)C[C@H]6OCCCOC[C@@H]5C4)cc3N3CCCOc4nc5[nH]ccc5cc43)cc2[N+](=O)[O-])C1` [Example 30, 4-((4aS,10aR)-14-(4-chlorophenyl)-12,12-dimethyl-1,2,4a,5,8,9,10a,11,13,15-decahydro-7H,12H-benzo[f]pyrazino[2,1-c][1,8]dioxa[4]azacycloundecin-3(4H)-yl)-2-(3,4-dihydro-2H-pyrrolo[3′,2′:5,6]pyrido[2,3-b][1,4]oxazepin-1(7H)-yl)-N-((4-(((1r,3r)-3-methoxycyclobutyl)amino)-3-nitrophenyl)sulfonyl)benzamide], for which the EC50 is 4.1 nM with RS4;11 cells and over 10000 nM in the experiment on Molt-4 cells. Besides, the Ki was 2.58 nM on Bcl-2 protein and 39 nM on Bcl-xL protein.

Take `CC1(C)CC(c2ccc(Cl)cc2)=C2CN3CCN(c4ccc(C(=O)NS(=O)(=O)c5ccc(NC[C@H]6CC[C@H](N7CCOCC7)CO6)c([N+](=O)[O-])c5)c(N5CCCOc6nc7[nH]ccc7cc65)c4)C[C@H]3COCCCO[C@@H]2C1` [Example 37, 4-((4aS,10aR)-14-(4-chlorophenyl)-12,12-dimethyl-1,2,4a,5,8,9,10a,11,13,15-decahydro-7H,12H-benzo[f]pyrazino[2,1-c][1,8]dioxa[4]azacycloundecin-3(4H)-yl)-2-(3,4-dihydro-2H-pyrrolo[3′,2′:5,6]pyrido[2,3-b][1,4]oxazepin-1(7H)-yl)-N-((4-((((2R,5S)-5-morpholinotetrahydro-2H-pyran-2-yl)methyl)amino)-3-nitrophenyl)sulfonyl)benzamide]: the EC50 in the experiment on RS4;11 cells amounted to 1.05 nM; with Molt-4 cells, 1450 nM. The Ki worked out at 0.109 nM on Bcl-2 protein and 4.61 nM on Bcl-xL protein.

As for `C[C@@H]1CC[C@H](CNc2ccc(S(=O)(=O)NC(=O)c3ccc(N4CCN5CC6=C(c7ccc(Cl)cc7)CC(C)(C)C[C@H]6OCCCOC[C@@H]5C4)cc3N3CCCOc4nc5[nH]ccc5cc43)cc2[N+](=O)[O-])OC1` [Example 21, 4-((4aS,10aR)-14-(4-chlorophenyl)-12,12-dimethyl-1,2,4a,5,8,9,10a,11,13,15-decahydro-7H,12H-benzo[f]pyrazino[2,1-c][1,8]dioxa[4]azacycloundecin-3(4H)-yl)-2-(3,4-dihydro-2H-pyrrolo[3′,2′:5,6]pyrido[2,3-b][1,4]oxazepin-1(7H)-yl)-N-((4-((((2R,5R)-5-methyltetrahydro-2H-pyran-2-yl)methyl)amino)-3-nitrophenyl)sulfonyl)benzamide], the results for the EC50 with RS4;11 cells and in the experiment on Molt-4 cells were 4.89 nM and 3280 nM, respectively.

A word on the EC50: it is the midpoint of the concentration-response curve. A word on the Ki: it is the dissociation constant of the complex between target and ligand, obtained from inhibition or displacement. A lower Ki goes with higher affinity.
